{"source": "the supplement of paper PMC10307832", "test_in_all_cases": "relative viability (nuclei count vs DMSO), 5 days (fraction); higher = more cells survive", "key": {"IDH-C35 + Olaparib": {"compound": "Cc1ccccc1C(C(=O)NC1CCCCC1)N(C(=O)Cn1ccnc1C)c1cccc(F)c1 [IDH-C35] + O=C(c1cc(Cc2n[nH]c(=O)c3ccccc23)ccc1F)N1CCN(C(=O)C2CC2)CC1 [Olaparib] (partner 8 µM)", "summary_of_the_method": "(§1)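 After 5 days of treatment, lung cancer cells in 1536-well plates were fixed and stained in a single step (final 0.05% Triton X-100, 1% formaldehyde, 1 ug/ml Hoechst) and their nuclei counted on 4× images. Treatment had been applied by pin tool the day after seeding as one drug alone or as a fixed anchor-drug dose with five library-drug doses (not always all listed) in √10 steps. Relative viability is the nuclei count of treated wells divided by that of vehicle wells, and values are medians of duplicate plates.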"}, "[1]": {"compound": "CC1=C(C(=NN1)C)CC2=C(C3=C(S2)N(C(=O)N(C3=O)C)CC(C)C)C(=O)N4C[C@@H](CO4)O + Cc1nc(Nc2ncc(C(=O)Nc3c(C)cccc3Cl)s2)cc(N2CCN(CCO)CC2)n1 [Dasatinib] (partner 0.075 µM)", "summary_of_the_method": "as §1"}, "IDH-C35 + Pictilisib": {"compound": "Cc1ccccc1C(C(=O)NC1CCCCC1)N(C(=O)Cn1ccnc1C)c1cccc(F)c1 [IDH-C35] + CS(=O)(=O)N1CCN(Cc2cc3nc(-c4cccc5[nH]ncc45)nc(N4CCOCC4)c3s2)CC1 [Pictilisib] (partner 1 µM)", "summary_of_the_method": "as §1"}, "[2]": {"compound": "CC1=C(C(=NN1)C)CC2=C(C3=C(S2)N(C(=O)N(C3=O)C)CC(C)C)C(=O)N4C[C@@H](CO4)O + O=C(c1cc(Cc2n[nH]c(=O)c3ccccc23)ccc1F)N1CCN(C(=O)C2CC2)CC1 [Olaparib] (partner 8 µM)", "summary_of_the_method": "as §1"}}}
{"cell line": "UMC-11", "values": [{"measurement": "relative viability", "setting": "IDH-C35 + Olaparib; first compound 0.08 µM", "value": 0.383}, {"measurement": "relative viability", "setting": "IDH-C35 + Olaparib; first compound 0.253 µM", "value": 0.366}, {"measurement": "relative viability", "setting": "IDH-C35 + Olaparib; first compound 0.8 µM", "value": 0.402}, {"measurement": "relative viability", "setting": "IDH-C35 + Olaparib; first compound 2.53 µM", "value": 0.382}, {"measurement": "relative viability", "setting": "IDH-C35 + Olaparib; first compound 8 µM", "value": 0.445}, {"measurement": "relative viability", "setting": "[1]; first compound 0.0025 µM", "value": 0.435}, {"measurement": "relative viability", "setting": "[1]; first compound 0.007906 µM", "value": 0.468}, {"measurement": "relative viability", "setting": "[1]; first compound 0.025 µM", "value": 0.451}, {"measurement": "relative viability", "setting": "[1]; first compound 0.07906 µM", "value": 0.348}, {"measurement": "relative viability", "setting": "[1]; first compound 0.25 µM", "value": 0.439}, {"measurement": "relative viability", "setting": "IDH-C35 + Pictilisib; first compound 0.08 µM", "value": 0.874}, {"measurement": "relative viability", "setting": "IDH-C35 + Pictilisib; first compound 0.253 µM", "value": 0.794}, {"measurement": "relative viability", "setting": "IDH-C35 + Pictilisib; first compound 0.8 µM", "value": 0.759}, {"measurement": "relative viability", "setting": "IDH-C35 + Pictilisib; first compound 2.53 µM", "value": 0.79}, {"measurement": "relative viability", "setting": "IDH-C35 + Pictilisib; first compound 8 µM", "value": 0.889}, {"measurement": "relative viability", "setting": "[2]; first compound 0.0025 µM", "value": 0.386}, {"measurement": "relative viability", "setting": "[2]; first compound 0.007906 µM", "value": 0.358}, {"measurement": "relative viability", "setting": "[2]; first compound 0.025 µM", "value": 0.383}, {"measurement": "relative viability", "setting": "[2]; first compound 0.07906 µM", "value": 0.456}, {"measurement": "relative viability", "setting": "[2]; first compound 0.25 µM", "value": 0.957}]}
